From patent US20230233144A1, “Method for Determining Medication Adherence and Taggants Therefo” (The Regents of the University of Colorado, A Body Corporate, priority 2021, published 2023) come the findings set out here.

Read-outs that look alike come from different tables or passages of the source.

For data set [1] the following is noted: in vivo. An excerpt:
Example 2: An assay for a tenofovir (a PrEP drug) anabolite, tenofovir-diphosphate in red blood cells, which may be collected in dried blood spots (DBS), is disclosed as an adherence assessment. […] This enables assessment of cumulative dosing, indicative of degrees or gradients of adherence, over the preceding 1-2 months for tenofovir-based PrEP. This is analogous to how hemoglobin A1C works for cumulative glucose exposure. […] FIG. 3 illustrates how taggant tenofovir diphosphate concentration in dried blood spots is used in clinical trials to correlate and interpret medication adherence based upon TFV-DP concentration in DBS.

The nature of data set [2]: Daily 5+ ATP to rats for six days, 5+ ATP/1+ ATP ratio in dried blood spots by mass spectrometry. The note with it: rat, red blood cells in dried blood spots, 100 mcg, in vivo ATP pool. An excerpt:
Once each day, blood spot samples were taken from each rat and dried.
The in vivo ATP pool is large, the half-life of ATP is relatively long, 3 days in rats, corresponding to about 10 days in humans.

A short description of data set [3]: ATP half-life corresponding value in humans. The note with it: human, in vivo, corresponding to the rat value. An excerpt:
The in vivo ATP pool is large, the half-life of ATP is relatively long, 3 days in rats, corresponding to about 10 days in humans. […] Given the long half-life of ATP, the measurement for gradients of adherence is analogous to hemoglobin A1C as a measure of gradients of glucose exposure over the preceding months.

A word on the half-life: it is the time needed for the level to fall by half in the phase considered. In turn, `CC(Cn1cnc2c(N)ncnc21)OCP(=O)(O)OP(=O)(O)OP(=O)(O)O` (stereo in doubt) [TFV-DP, tenofovir-diphosphate] yielded a half-life in data set [1] (human) of 408 h. Further, in data set [1], the “accumulation from a single dose to steady-state” value is 25 fold and the “time of build up in DBS until steady-state plateau” value was “approximately 60 days”.
Turning to `Nc1ncnc2c1ncn2[C@@H]1O[C@H](COP(=O)(O)OP(=O)(O)OP(=O)(O)O)[C@@H](O)[C@H]1O` [ATP, adenosine triphosphate], the half-life in data set [2] was 72 h; in data set [3], approximately 240 h.
